The source of these data is ChEMBL document CHEMBL1201862, “PubChem BioAssay data set” (2004).

Test systems include NCI/ADR-RES; NCI-H23; UACC-62; EKVX; SF-539; LOX IMVI; U-251; HOP-62; SK-MEL-28; ACHN; SR; T47D; HCC 2998; OVCAR-4; MDA-MB-435; OVCAR-8; 786-0; K562; SK-OV-3; Malme-3M.
Common to all, as to assay: DTP human tumour cell line panel, 48 h

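Interpolation was linear, between the two tested concentrations surrounding the appropriate level; five concentrations were tested over 48 hours in 96-well plates. GI50 = concentration required for 50% inhibition of growth.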 Active and inactive are the calls of the source. Cut-off read from the data, not from the text of the source: active = GI50 up to about 1.1 µM and inactive = higher.

For orientation: GI50 means the concentration at which growth is held to half of that of the control. On to `O=C(Nc1ccccc1)Nn1c(-c2cccs2)nc2ccc(I)cc2c1=O`, for which the GI50 in the experiment on NCI/ADR-RES is 30.6 µM (inactive); in the experiment on NCI-H23, 27.3 µM (inactive); with UACC-62, 28.7 µM (inactive); in the experiment on EKVX, 20.9 µM (inactive); in the experiment on SF-539, 33.7 µM (inactive); in the experiment on LOX IMVI it was 19.2 µM (inactive). The GI50 is 23.9 µM (inactive) with U-251; 51.4 µM (inactive) with HOP-62; 20.5 µM (inactive) in the experiment with SK-MEL-28; 27.5 µM (inactive) in the experiment with ACHN; 16.8 µM (inactive) with SR; 3.33 µM (inactive) in the experiment on T47D. Also, the GI50 in the experiment on HCC 2998 was 25.8 µM (inactive); in the experiment on OVCAR-4 it was 16.9 µM (inactive); in the experiment with MDA-MB-435, 20.1 µM (inactive); in the experiment on OVCAR-8, 33.3 µM (inactive); with 786-0, 61.7 µM (inactive); with K562, 0.022 µM (active). For the same molecule, the GI50 in the experiment with SK-OV-3 was 20.9 µM (inactive).

On to `CC(C)(C)OC(=O)NCC(=O)N1CCN(C(=O)CNC(=O)OC(C)(C)C)CC1`, for which the GI50 in the experiment with NCI/ADR-RES, with NCI-H23, in the experiment on UACC-62, in the experiment on EKVX, in the experiment with SF-539 and with LOX IMVI was > 100 µM (inactive) throughout. Moreover, the GI50 in the experiment with U-251, in the experiment with HOP-62, in the experiment on SK-MEL-28, with ACHN, in the experiment with SR and in the experiment with T47D was > 100 µM (inactive) in each case. The GI50 in the experiment with HCC 2998, in the experiment on OVCAR-4, with MDA-MB-435, in the experiment with OVCAR-8, in the experiment on 786-0 and in the experiment with K562 was > 100 µM (inactive) each time. Further, in the experiment on SK-OV-3, the GI50 is > 100 µM (inactive).

`Oc1ccc2c(c1)-c1c(c3cc(O)ccc3n1CCN1CCOCC1)CC2`: the GI50 is 24.8 µM (inactive) in the experiment on NCI/ADR-RES; 25.3 µM (inactive) with NCI-H23; 16.7 µM (inactive) in the experiment on UACC-62; 30.8 µM (inactive) in the experiment with EKVX; 22.6 µM (inactive) with SF-539; 17.6 µM (inactive) in the experiment on LOX IMVI. Further, the GI50 with U-251 is 19.7 µM (inactive); in the experiment with HOP-62, 19.5 µM (inactive); in the experiment on SK-MEL-28 it was 18.5 µM (inactive); in the experiment with ACHN, 30.5 µM (inactive); in the experiment with SR it was 18.4 µM (inactive); in the experiment on T47D it was 18.8 µM (inactive). The GI50 in the experiment with HCC 2998 was 16.9 µM (inactive); in the experiment on OVCAR-4, 25.4 µM (inactive); with MDA-MB-435 it was 17.8 µM (inactive); with OVCAR-8, 30.4 µM (inactive); with 786-0 it was 21.9 µM (inactive); in the experiment on K562 it was 20 µM (inactive). The GI50 with SK-OV-3 was 23.9 µM (inactive).

Take `CCOC(=O)CN1C(=O)c2c(c(C)n(-c3ccccc3)c2C)C1=O`: the GI50 with NCI/ADR-RES is > 100 µM (inactive); in the experiment with NCI-H23, > 100 µM (inactive); in the experiment with UACC-62, > 100 µM (inactive); in the experiment on EKVX, > 100 µM (inactive); in the experiment with SF-539, 91.2 µM (inactive); in the experiment on U-251, 73.5 µM (inactive). For the same molecule, the GI50 with HOP-62 was 36 µM (inactive); in the experiment on SK-MEL-28, > 100 µM (inactive); with ACHN, > 100 µM (inactive); with SR it was > 100 µM (inactive); in the experiment on T47D it was > 100 µM (inactive); in the experiment on HCC 2998, > 100 µM (inactive). For the same molecule, the GI50 with OVCAR-4, with MDA-MB-435, with OVCAR-8, with 786-0, in the experiment with Malme-3M and in the experiment on K562 was > 100 µM (inactive) in each case. Moreover, in the experiment with SK-OV-3, the GI50 was > 100 µM (inactive).
